Assay results taken from patent US20090312356A1, “NICOTINIC AGONISTS SELECTIVE FOR THE ALPHA7 RECEPTOR SUBTYPE, THE PROCESS FOR THE PREPARATION THEREOF AND PHARMACEUTICAL CO[…]” (priority 2006, published 2009).

What was measured:
[1] = biological target: T1, human α7 (hα7) receptors (Homo sapiens, UniProt P36544); test: whole cell patch-clamp electrophysiological recordings, hα7-expressing GH4C1 cells; format: cell-based; conditions: 50 nM
T1 construct: expressed in transfected cells
T1 sequence (P36544 23-502): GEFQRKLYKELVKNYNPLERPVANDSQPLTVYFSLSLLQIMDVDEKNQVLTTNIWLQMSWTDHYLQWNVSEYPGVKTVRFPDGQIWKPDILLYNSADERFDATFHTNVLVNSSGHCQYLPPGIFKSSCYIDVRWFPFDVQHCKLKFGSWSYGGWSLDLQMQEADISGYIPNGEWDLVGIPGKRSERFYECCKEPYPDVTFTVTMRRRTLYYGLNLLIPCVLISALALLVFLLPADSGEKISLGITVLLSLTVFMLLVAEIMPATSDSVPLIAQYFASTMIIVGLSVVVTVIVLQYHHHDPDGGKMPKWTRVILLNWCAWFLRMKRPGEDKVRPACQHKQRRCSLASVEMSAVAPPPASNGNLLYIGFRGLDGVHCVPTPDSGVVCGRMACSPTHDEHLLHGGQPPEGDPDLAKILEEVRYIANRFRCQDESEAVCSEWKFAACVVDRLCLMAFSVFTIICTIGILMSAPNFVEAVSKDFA
Procedure: α7 Subtype: The human α7 (hα7) receptors were stably expressed in transfected GH4C1 and grown in the presence of geneticin (G418 sulfate, 500 μg/mL) as previously described.^31

| melting point [°C] | Structure (SMILES) | effect on acetylcholine-induced hα7 current [1] |
| --- | --- | --- |
| > 50 | c1ccc(COC2=NOC3(C2)CN2CCC3CC2)cc1 (racemic) | – |
| 203 to 207 | BrC1=NN(c2ccccc2)C2(C1)CN1CCC2CC1 (racemic) | – |
| 182 to 183 | CN1OC2(CC1=O)CN1CCC2CC1 (racemic) | – |
| – | CCN1C[C@]2(COC(=O)c3ccccc3N3C(=O)C[C@H](C)C3=O)CC[C@H](OC)[C@@]34[C@@H]5C[C@H]6[C@H](OC)[C@@H]5[C@](O)(C[C@@H]6OC)[C@@](O)([C@@H](OC)[C@H]23)[C@@H]14 [methyllycaconitine] | blocked |
